System: A375 cells
Assay: Tumor cell line proliferation assay (CellTiter Glo), A375
Assay type: cell-based
Details: Homo sapiens, A-375, 96 h, read-out: A375 (V599E) Cell Proliferation IC50

Row | IC50 | SMILES
1 | 250 to 1000 nM | Cc1cc(-c2n[nH]c3cc4c(cc23)CN([C@H](CO)c2cccc(Cl)c2)C(=O)N4)ccn1 [Example 26]
2 | > 1000 nM | Cc1cc(-c2n[nH]c3cc4[nH]c(=O)n(Cc5ccccc5)c(=O)c4cc23)ccn1 [Example 27]
3 | 250 to 1000 nM | Cc1cc(-c2n[nH]c3cc4c(cc23)CN(Cc2ccc(F)cc2)C(=O)N4)ccn1 [Example 30]
4 | 250 to 1000 nM | Cn1cc(-c2n[nH]c3cc4c(cc23)CN(Cc2ccc(F)c(Cl)c2)C(=O)N4)cn1 [Example 31]
5 | > 1000 nM | Cc1cc(-c2n[nH]c3cc4c(cc23)CN([C@@H]2CCCNC2)C(=O)N4)ccn1 [Example 32]
6 | > 1000 nM | Cc1cc(-c2n[nH]c3cc4c(cc23)CN([C@@H]2CCCN(C)C2)C(=O)N4)ccn1 [Example 33]
7 | > 1000 nM | Cc1cc(-c2n[nH]c3cc4c(cc23)CN(C2CCNCC2)C(=O)N4)ccn1 [Example 34]
8 | 250 to 1000 nM | Cc1cc(-c2n[nH]c3cc4c(cc23)CN([C@H](C)c2cccc(Cl)c2)C(=O)N4)ccn1 [Example 35]
9 | 250 to 1000 nM | COc1ccc(-c2n[nH]c3cc4c(cc23)CN(Cc2ccc(F)c(Cl)c2)C(=O)N4)cn1 [Example 36]
10 | 250 to 1000 nM | COc1ncc(-c2n[nH]c3cc4c(cc23)CN(Cc2ccc(F)c(Cl)c2)C(=O)N4)cn1 [Example 37]
11 | > 1000 nM | Cc1cc(-c2n[nH]c3cc4c(cc23)CN(Cc2ccc(C#N)cc2)C(=O)N4)ccn1 [Example 39]
12 | 250 to 1000 nM | Cn1cc(-c2n[nH]c3cc4c(cc23)CN(Cc2ccc(F)c(Cl)c2)C(=O)N4)ccc1=O [Example 41]
13 | > 1000 nM | Cc1cc(-c2n[nH]c3cc4c(cc23)CN(Cc2cscn2)C(=O)N4)ccn1 [Example 47]
14 | > 1000 nM | Cc1cc(-c2n[nH]c3cc4c(cc23)CN([C@@H]2CCCOC2)C(=O)N4)ccn1 [Example 49]
15 | ≤ 250 nM | Cc1cc(-c2n[nH]c3cc4c(cc23)CN([C@@H]2CCCN(Cc3ccccc3)C2)C(=O)N4)ccn1 [Example 63]
16 | ≤ 250 nM | CCC(c1ccccc1)c1cc2cc3c(-c4ccnc(C)c4)n[nH]c3cc2[nH]c1=O (stereo not drawn) [Example 64]
17 | ≤ 250 nM | COc1ncc(-c2n[nH]c3cc4c(cc23)CN(Cc2cccc(Cl)c2)C(=O)N4)cn1 [Example 68]
18 | ≤ 250 nM | Cc1cc(-c2n[nH]c3cc4c(cc23)CN(Cc2cccc(Cl)c2)C(=O)N4)cc(C)n1 [Example 77]
19 | ≤ 250 nM | Cc1cc(-c2n[nH]c3cc4[nH]c(=O)c([C@H](C)c5ccccc5)cc4cc23)ccn1 [Example 84]
20 | 250 to 1000 nM | COc1ncc(-c2n[nH]c3cc4c(cc23)CN(Cc2ccc(F)cc2F)C(=O)N4)cn1 [Example 99]
21 | ≤ 250 nM | COc1ncc(-c2n[nH]c3cc4c(cc23)CN([C@@H]2CCCN(Cc3ccccc3F)C2)C(=O)N4)cn1 [Example 101]
22 | ≤ 250 nM | COc1ncc(-c2n[nH]c3cc4c(cc23)CN([C@@H]2CCCN(Cc3c(F)cccc3F)C2)C(=O)N4)cn1 [Example 102]
23 | ≤ 250 nM | COc1ncc(-c2n[nH]c3cc4c(cc23)CN([C@@H]2CCCN(Cc3c(F)cccc3OC)C2)C(=O)N4)cn1 [Example 103]
24 | 250 to 1000 nM | O=C1Nc2cc3[nH]nc(-c4ccnnc4)c3cc2CN1[C@@H]1CCCN(Cc2ccccc2)C1 [Example 120]
25 | 250 to 1000 nM | O=C1Nc2cc3[nH]nc(-c4cncnc4)c3cc2CN1Cc1cccc(Cl)c1 [Example 123]
26 | 250 to 1000 nM | Cc1cc(-c2n[nH]c3cc4c(cc23)CN([C@@H]2CCCN(Cc3ccc(F)cn3)C2)C(=O)N4)ccn1 [Example 132]

System: H358 (Kras, G12C) cells
Assay: Tumor cell line proliferation assay (CellTiter Glo), H358
Assay type: cell-based
Details: Homo sapiens, NCI-H358, 96 hours

Row | IC50 | SMILES
27 | > 1000 nM | Cc1cc(-c2n[nH]c3cc4c(cc23)CN([C@H](CO)c2cccc(Cl)c2)C(=O)N4)ccn1 [Example 26]
28 | > 1000 nM | Cc1cc(-c2n[nH]c3cc4[nH]c(=O)n(Cc5ccccc5)c(=O)c4cc23)ccn1 [Example 27]
29 | 250 to 1000 nM | Cc1cc(-c2n[nH]c3cc4c(cc23)CN(Cc2ccc(F)cc2)C(=O)N4)ccn1 [Example 30]
30 | 250 to 1000 nM | Cn1cc(-c2n[nH]c3cc4c(cc23)CN(Cc2ccc(F)c(Cl)c2)C(=O)N4)cn1 [Example 31]
31 | > 1000 nM | Cc1cc(-c2n[nH]c3cc4c(cc23)CN([C@@H]2CCCNC2)C(=O)N4)ccn1 [Example 32]
32 | > 1000 nM | Cc1cc(-c2n[nH]c3cc4c(cc23)CN([C@@H]2CCCN(C)C2)C(=O)N4)ccn1 [Example 33]
33 | > 1000 nM | Cc1cc(-c2n[nH]c3cc4c(cc23)CN(C2CCNCC2)C(=O)N4)ccn1 [Example 34]
34 | ≤ 250 nM | Cc1cc(-c2n[nH]c3cc4c(cc23)CN([C@H](C)c2cccc(Cl)c2)C(=O)N4)ccn1 [Example 35]
35 | 250 to 1000 nM | COc1ccc(-c2n[nH]c3cc4c(cc23)CN(Cc2ccc(F)c(Cl)c2)C(=O)N4)cn1 [Example 36]
36 | 250 to 1000 nM | COc1ncc(-c2n[nH]c3cc4c(cc23)CN(Cc2ccc(F)c(Cl)c2)C(=O)N4)cn1 [Example 37]
37 | 250 to 1000 nM | Cc1cc(-c2n[nH]c3cc4c(cc23)CN(Cc2ccc(C#N)cc2)C(=O)N4)ccn1 [Example 39]
38 | 250 to 1000 nM | Cn1cc(-c2n[nH]c3cc4c(cc23)CN(Cc2ccc(F)c(Cl)c2)C(=O)N4)ccc1=O [Example 41]
39 | > 1000 nM | Cc1cc(-c2n[nH]c3cc4c(cc23)CN(Cc2cscn2)C(=O)N4)ccn1 [Example 47]
40 | > 1000 nM | Cc1cc(-c2n[nH]c3cc4c(cc23)CN([C@@H]2CCCOC2)C(=O)N4)ccn1 [Example 49]
41 | ≤ 250 nM | Cc1cc(-c2n[nH]c3cc4c(cc23)CN([C@@H]2CCCN(Cc3ccccc3)C2)C(=O)N4)ccn1 [Example 63]
42 | ≤ 250 nM | CCC(c1ccccc1)c1cc2cc3c(-c4ccnc(C)c4)n[nH]c3cc2[nH]c1=O (stereo not drawn) [Example 64]
43 | 250 to 1000 nM | COc1ncc(-c2n[nH]c3cc4c(cc23)CN(Cc2cccc(Cl)c2)C(=O)N4)cn1 [Example 68]
44 | 250 to 1000 nM | Cc1cc(-c2n[nH]c3cc4c(cc23)CN(Cc2cccc(Cl)c2)C(=O)N4)cc(C)n1 [Example 77]
45 | ≤ 250 nM | Cc1cc(-c2n[nH]c3cc4[nH]c(=O)c([C@H](C)c5ccccc5)cc4cc23)ccn1 [Example 84]
46 | 250 to 1000 nM | COc1ncc(-c2n[nH]c3cc4c(cc23)CN(Cc2ccc(F)cc2F)C(=O)N4)cn1 [Example 99]
47 | ≤ 250 nM | COc1ncc(-c2n[nH]c3cc4c(cc23)CN([C@@H]2CCCN(Cc3ccccc3F)C2)C(=O)N4)cn1 [Example 101]
48 | ≤ 250 nM | COc1ncc(-c2n[nH]c3cc4c(cc23)CN([C@@H]2CCCN(Cc3c(F)cccc3F)C2)C(=O)N4)cn1 [Example 102]
49 | ≤ 250 nM | COc1ncc(-c2n[nH]c3cc4c(cc23)CN([C@@H]2CCCN(Cc3c(F)cccc3OC)C2)C(=O)N4)cn1 [Example 103]
50 | 250 to 1000 nM | O=C1Nc2cc3[nH]nc(-c4ccnnc4)c3cc2CN1[C@@H]1CCCN(Cc2ccccc2)C1 [Example 120]
51 | 250 to 1000 nM | O=C1Nc2cc3[nH]nc(-c4cncnc4)c3cc2CN1Cc1cccc(Cl)c1 [Example 123]
52 | 250 to 1000 nM | Cc1cc(-c2n[nH]c3cc4c(cc23)CN([C@@H]2CCCN(Cc3ccc(F)cn3)C2)C(=O)N4)ccn1 [Example 132]

System: phospho-p90 RSK (RSK1 Thr359/Ser363) in A375 (Braf V600E) cells
Assay: Phospho-p90 RSK ELISA using A375 (Braf V600E) cells
Assay type: cell-based
Details: Homo sapiens, A-375, 2 hours compound treatment, read-out: Cellular Phospho-p90RSK IC50

Row | IC50 | SMILES
53 | ≤ 250 nM | Cc1cc(-c2n[nH]c3cc4c(cc23)CN([C@H](CO)c2cccc(Cl)c2)C(=O)N4)ccn1 [Example 26]
54 | 250 to 1000 nM | Cc1cc(-c2n[nH]c3cc4[nH]c(=O)n(Cc5ccccc5)c(=O)c4cc23)ccn1 [Example 27]
55 | ≤ 250 nM | Cc1cc(-c2n[nH]c3cc4c(cc23)CN(Cc2ccc(F)cc2)C(=O)N4)ccn1 [Example 30]
56 | ≤ 250 nM | Cn1cc(-c2n[nH]c3cc4c(cc23)CN(Cc2ccc(F)c(Cl)c2)C(=O)N4)cn1 [Example 31]
57 | > 1000 nM | Cc1cc(-c2n[nH]c3cc4c(cc23)CN([C@@H]2CCCNC2)C(=O)N4)ccn1 [Example 32]
58 | > 1000 nM | Cc1cc(-c2n[nH]c3cc4c(cc23)CN([C@@H]2CCCN(C)C2)C(=O)N4)ccn1 [Example 33]
59 | > 1000 nM | Cc1cc(-c2n[nH]c3cc4c(cc23)CN(C2CCNCC2)C(=O)N4)ccn1 [Example 34]
60 | ≤ 250 nM | Cc1cc(-c2n[nH]c3cc4c(cc23)CN([C@H](C)c2cccc(Cl)c2)C(=O)N4)ccn1 [Example 35]
61 | 250 to 1000 nM | COc1ccc(-c2n[nH]c3cc4c(cc23)CN(Cc2ccc(F)c(Cl)c2)C(=O)N4)cn1 [Example 36]
62 | ≤ 250 nM | COc1ncc(-c2n[nH]c3cc4c(cc23)CN(Cc2ccc(F)c(Cl)c2)C(=O)N4)cn1 [Example 37]
63 | 250 to 1000 nM | Cc1cc(-c2n[nH]c3cc4c(cc23)CN(Cc2ccc(C#N)cc2)C(=O)N4)ccn1 [Example 39]
64 | ≤ 250 nM | Cn1cc(-c2n[nH]c3cc4c(cc23)CN(Cc2ccc(F)c(Cl)c2)C(=O)N4)ccc1=O [Example 41]
65 | 250 to 1000 nM | Cc1cc(-c2n[nH]c3cc4c(cc23)CN(Cc2cscn2)C(=O)N4)ccn1 [Example 47]
66 | 250 to 1000 nM | Cc1cc(-c2n[nH]c3cc4c(cc23)CN([C@@H]2CCCOC2)C(=O)N4)ccn1 [Example 49]
67 | ≤ 250 nM | Cc1cc(-c2n[nH]c3cc4c(cc23)CN([C@@H]2CCCN(Cc3ccccc3)C2)C(=O)N4)ccn1 [Example 63]
68 | ≤ 250 nM | CCC(c1ccccc1)c1cc2cc3c(-c4ccnc(C)c4)n[nH]c3cc2[nH]c1=O (stereo not drawn) [Example 64]
69 | ≤ 250 nM | COc1ncc(-c2n[nH]c3cc4c(cc23)CN(Cc2cccc(Cl)c2)C(=O)N4)cn1 [Example 68]
70 | ≤ 250 nM | Cc1cc(-c2n[nH]c3cc4c(cc23)CN(Cc2cccc(Cl)c2)C(=O)N4)cc(C)n1 [Example 77]
71 | ≤ 250 nM | Cc1cc(-c2n[nH]c3cc4[nH]c(=O)c([C@H](C)c5ccccc5)cc4cc23)ccn1 [Example 84]
72 | ≤ 250 nM | COc1ncc(-c2n[nH]c3cc4c(cc23)CN(Cc2ccc(F)cc2F)C(=O)N4)cn1 [Example 99]
73 | ≤ 250 nM | COc1ncc(-c2n[nH]c3cc4c(cc23)CN([C@@H]2CCCN(Cc3ccccc3F)C2)C(=O)N4)cn1 [Example 101]
74 | ≤ 250 nM | COc1ncc(-c2n[nH]c3cc4c(cc23)CN([C@@H]2CCCN(Cc3c(F)cccc3F)C2)C(=O)N4)cn1 [Example 102]
75 | ≤ 250 nM | COc1ncc(-c2n[nH]c3cc4c(cc23)CN([C@@H]2CCCN(Cc3c(F)cccc3OC)C2)C(=O)N4)cn1 [Example 103]
76 | ≤ 250 nM | O=C1Nc2cc3[nH]nc(-c4ccnnc4)c3cc2CN1[C@@H]1CCCN(Cc2ccccc2)C1 [Example 120]
77 | ≤ 250 nM | O=C1Nc2cc3[nH]nc(-c4cncnc4)c3cc2CN1Cc1cccc(Cl)c1 [Example 123]
78 | ≤ 250 nM | Cc1cc(-c2n[nH]c3cc4c(cc23)CN([C@@H]2CCCN(Cc3ccc(F)cn3)C2)C(=O)N4)ccn1 [Example 132]
